Measurements reported in ChEMBL document CHEMBL1909046, “DrugMatrix in vitro pharmacology data”.

Experiments:
[1] = molecular target: Mitogen-activated protein kinase 1 (Homo sapiens, UniProt P28482); assay: DRUGMATRIX: Protein Serine/Threonine Kinase, ERK2 enzyme inhibition (substrate: Myelin Basic Protein); design: species or system Escherichia coli; conditions: Not Active = under 50% inhibition at 10 µM
Melanocortin receptor 3 = Melanocortin receptor 3 (Homo sapiens, UniProt P41968); format: cell membranes, HEK293, Membrane; conditions: hek293; further: in other assays of this panel Not Active means under 50% inhibition at 10 µM
Endothelin-1 receptor = molecular target: T1, Endothelin-1 receptor (Homo sapiens, UniProt P25101); format: cell membranes, CHO-K1, Membrane; further: in other assays of this panel Not Active means under 50% inhibition at 10 µM
T1 sequence (P25101 whole entry): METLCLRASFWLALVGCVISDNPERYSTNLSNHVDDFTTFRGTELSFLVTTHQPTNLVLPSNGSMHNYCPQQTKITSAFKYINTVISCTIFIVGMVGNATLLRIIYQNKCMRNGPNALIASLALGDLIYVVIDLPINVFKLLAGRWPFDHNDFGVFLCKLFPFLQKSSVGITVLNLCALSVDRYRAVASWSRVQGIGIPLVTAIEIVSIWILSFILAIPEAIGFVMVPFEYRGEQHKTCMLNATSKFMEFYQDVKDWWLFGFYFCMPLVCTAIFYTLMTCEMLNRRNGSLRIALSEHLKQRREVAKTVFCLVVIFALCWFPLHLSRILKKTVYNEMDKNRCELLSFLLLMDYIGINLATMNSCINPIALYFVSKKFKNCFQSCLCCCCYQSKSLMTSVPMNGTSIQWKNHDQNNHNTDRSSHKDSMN

[2] = DRUGMATRIX: GABAA, Chloride Channel, TBOB radioligand binding (ligand: [3H] TBOB); format: cell membranes, Rattus norvegicus, Wistar, Cerebral cortex, Membrane; conditions: Not Active = under 50% inhibition at 10 µM
[3] = DRUGMATRIX: Nicotinic Acetylcholine radioligand binding (ligand: [125I] Epibatidine); format: cell membranes, Membrane; conditions: imr-32; Not Active = under 50% inhibition at 10 µM
[4] = molecular target: T2, Nitric oxide synthase, inducible (Mus musculus, UniProt P29477); design: species or system Escherichia coli;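 further: inhibition of iNOS enzyme activity measured with L-arginine as substrate; in other assays of this panel Not Active means under 50% inhibition at 10 µM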
T2 sequence (P29477 whole entry): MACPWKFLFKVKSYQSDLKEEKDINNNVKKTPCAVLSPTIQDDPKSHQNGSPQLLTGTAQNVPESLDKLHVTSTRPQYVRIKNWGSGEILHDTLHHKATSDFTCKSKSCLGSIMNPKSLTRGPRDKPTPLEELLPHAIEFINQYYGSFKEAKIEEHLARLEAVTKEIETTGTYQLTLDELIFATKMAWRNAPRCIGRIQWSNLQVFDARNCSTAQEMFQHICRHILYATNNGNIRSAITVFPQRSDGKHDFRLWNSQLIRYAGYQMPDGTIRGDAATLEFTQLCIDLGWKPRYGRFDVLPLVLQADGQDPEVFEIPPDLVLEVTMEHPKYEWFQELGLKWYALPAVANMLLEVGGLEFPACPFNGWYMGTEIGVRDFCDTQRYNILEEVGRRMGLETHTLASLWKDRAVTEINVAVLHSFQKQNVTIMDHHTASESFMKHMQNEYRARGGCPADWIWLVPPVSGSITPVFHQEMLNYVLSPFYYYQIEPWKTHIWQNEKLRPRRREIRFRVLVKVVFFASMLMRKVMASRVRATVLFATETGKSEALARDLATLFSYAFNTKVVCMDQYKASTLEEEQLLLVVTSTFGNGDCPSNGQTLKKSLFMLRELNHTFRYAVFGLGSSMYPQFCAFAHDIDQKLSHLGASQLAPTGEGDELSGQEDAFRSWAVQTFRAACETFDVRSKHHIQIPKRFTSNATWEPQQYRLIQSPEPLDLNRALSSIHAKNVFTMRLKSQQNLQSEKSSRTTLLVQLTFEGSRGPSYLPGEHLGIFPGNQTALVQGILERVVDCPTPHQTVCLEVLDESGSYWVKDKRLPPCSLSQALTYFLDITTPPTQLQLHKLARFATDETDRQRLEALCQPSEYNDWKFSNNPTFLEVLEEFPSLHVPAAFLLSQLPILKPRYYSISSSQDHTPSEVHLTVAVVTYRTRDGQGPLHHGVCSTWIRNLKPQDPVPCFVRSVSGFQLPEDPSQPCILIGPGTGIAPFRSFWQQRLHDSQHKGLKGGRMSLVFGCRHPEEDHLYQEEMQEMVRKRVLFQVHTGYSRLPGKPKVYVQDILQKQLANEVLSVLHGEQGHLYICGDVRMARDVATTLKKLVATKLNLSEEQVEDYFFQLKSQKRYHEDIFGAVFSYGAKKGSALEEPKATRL

[5] = molecular target: Tyrosine-protein kinase Fyn (Homo sapiens, UniProt P06241); assay: biochemical; format: cell-based, Insect cells;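 further: enzymatic inhibition of Fyn kinase activity measured with Poly(Glu:Tyr) as the phosphorylation substrate; in other assays of this panel Not Active means under 50% inhibition at 10 µM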
Sequence of Tyrosine-protein kinase Fyn (P06241 whole entry): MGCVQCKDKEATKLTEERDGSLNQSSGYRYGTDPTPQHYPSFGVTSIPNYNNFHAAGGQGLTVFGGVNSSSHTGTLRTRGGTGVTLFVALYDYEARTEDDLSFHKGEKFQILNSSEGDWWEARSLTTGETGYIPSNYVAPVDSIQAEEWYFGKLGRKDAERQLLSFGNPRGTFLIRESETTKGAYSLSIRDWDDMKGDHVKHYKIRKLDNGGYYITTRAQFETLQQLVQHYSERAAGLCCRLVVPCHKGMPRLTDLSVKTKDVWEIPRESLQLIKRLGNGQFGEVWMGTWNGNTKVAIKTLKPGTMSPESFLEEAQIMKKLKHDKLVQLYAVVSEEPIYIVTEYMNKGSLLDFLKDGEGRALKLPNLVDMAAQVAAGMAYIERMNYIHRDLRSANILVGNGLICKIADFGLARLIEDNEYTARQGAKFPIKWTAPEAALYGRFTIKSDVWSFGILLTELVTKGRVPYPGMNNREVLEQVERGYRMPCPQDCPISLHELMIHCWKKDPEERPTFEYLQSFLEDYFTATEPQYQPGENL

Sequence of Mitogen-activated protein kinase 1 (P28482 whole entry): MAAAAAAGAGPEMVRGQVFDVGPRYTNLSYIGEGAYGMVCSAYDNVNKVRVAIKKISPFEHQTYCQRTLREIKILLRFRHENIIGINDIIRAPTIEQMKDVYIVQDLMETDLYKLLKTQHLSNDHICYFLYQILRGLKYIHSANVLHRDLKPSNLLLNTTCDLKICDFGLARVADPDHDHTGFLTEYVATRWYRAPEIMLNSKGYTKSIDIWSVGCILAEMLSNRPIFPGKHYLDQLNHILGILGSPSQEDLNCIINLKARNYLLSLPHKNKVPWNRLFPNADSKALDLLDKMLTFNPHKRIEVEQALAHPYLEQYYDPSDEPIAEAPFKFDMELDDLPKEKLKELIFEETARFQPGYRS
Sequence of Melanocortin receptor 3 (P41968 whole entry): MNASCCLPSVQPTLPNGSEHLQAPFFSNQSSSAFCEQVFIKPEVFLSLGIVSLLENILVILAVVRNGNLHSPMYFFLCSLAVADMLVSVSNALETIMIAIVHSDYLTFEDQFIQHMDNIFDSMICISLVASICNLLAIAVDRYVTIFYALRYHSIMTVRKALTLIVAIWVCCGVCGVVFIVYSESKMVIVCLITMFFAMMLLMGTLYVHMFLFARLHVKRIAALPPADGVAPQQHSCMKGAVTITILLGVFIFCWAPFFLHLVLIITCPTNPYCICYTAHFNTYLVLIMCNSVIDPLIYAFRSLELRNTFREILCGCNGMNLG

For `CC(C)(C)NC(=O)[C@@H]1C[C@@H]2CCCC[C@@H]2CN1C[C@@H](O)[C@H](Cc1ccccc1)NC(=O)[C@H](CC(N)=O)NC(=O)c1ccc2ccccc2n1`, the IC50 [1] was “Not Active”, the IC50 (Melanocortin receptor 3) was “Not Active” and the IC50 (Endothelin-1 receptor; cho-k1) was “Not Active”. The IC50 [2] was “Not Active”, the Ki [2] was “Not Active” and the IC50 [3] was “Not Active”. The Ki [3] was “Not Active”, the IC50 [4] was “Not Active” and the IC50 ([5]; insect cells) was “Not Active”.

For `CC(=O)[C@@]1(O)CC[C@H]2[C@@H]3C[C@H](C)C4=CC(=O)CC[C@]4(C)[C@H]3CC[C@@]21C`, the IC50 [1] was “Not Active”, the IC50 (Melanocortin receptor 3) was “Not Active” and the IC50 (Endothelin-1 receptor; cho-k1) was “Not Active”. For the same compound, the IC50 [2] was “Not Active”, the Ki [2] was “Not Active” and the IC50 [3] was “Not Active”. The Ki [3] was “Not Active”, the IC50 [4] was “Not Active” and the IC50 ([5]; insect cells) was “Not Active”.

For `N[C@@H](Cc1ccc(N(CCCl)CCCl)cc1)C(=O)O`, the IC50 [1] was “Not Active”, the IC50 (Melanocortin receptor 3) was “Not Active” and the IC50 (Endothelin-1 receptor; cho-k1) was “Not Active”. For the same compound, the IC50 [2] was “Not Active”, the Ki [2] was “Not Active” and the IC50 [3] was “Not Active”. For the same compound, the Ki [3] was “Not Active”, the IC50 [4] was “Not Active” and the IC50 ([5]; insect cells) was “Not Active”.

For `CCCCc1oc2ccccc2c1C(=O)c1cc(I)c(OCCN(CC)CC)c(I)c1` [AMIODARONE], the IC50 [1] was “Not Active”, the IC50 (Endothelin-1 receptor; read-out: IC50) was 26.3 µM and the Ki (Endothelin-1 receptor; read-out: Ki) was 16.2 µM. The IC50 [4] was “Not Active” and the IC50 ([5]; read-out: IC50) was 0.817 µM.

In the case of `OCCN(CCO)c1nc(N2CCCCC2)c2nc(N(CCO)CCO)nc(N3CCCCC3)c2n1` [DIPYRIDAMOLE], the IC50 [1] is reported as “Not Active”, the IC50 (Melanocortin receptor 3) is reported as “Not Active” and the IC50 (Endothelin-1 receptor; cho-k1) is reported as “Not Active”. For the same compound, the IC50 [2] was “Not Active”, the Ki [2] was “Not Active” and the IC50 [3] was “Not Active”. For the same compound, the Ki [3] was “Not Active”, the IC50 [4] was “Not Active” and the IC50 ([5]; insect cells) was “Not Active”.

With `Cc1oncc1C(=O)Nc1ccc(C(F)(F)F)cc1` [LEFLUNOMIDE] the IC50 [1] was “Not Active”, the IC50 (Melanocortin receptor 3) was “Not Active” and the IC50 (Endothelin-1 receptor; cho-k1) was “Not Active”. For the same compound, the IC50 [2] was “Not Active”, the Ki [2] was “Not Active” and the IC50 [3] was “Not Active”. For the same compound, the Ki [3] was “Not Active”, the IC50 [4] was “Not Active” and the IC50 ([5]; insect cells) was “Not Active”.

In the case of `c1ccc([C@H]2CN3CCSC3=N2)cc1` [LEVAMISOLE], the IC50 [1] is reported as “Not Active”, the IC50 (Melanocortin receptor 3) is reported as “Not Active” and the IC50 (Endothelin-1 receptor; cho-k1) is reported as “Not Active”. The IC50 [2] was “Not Active”, the Ki [2] was “Not Active” and the IC50 [3] was “Not Active”. The Ki [3] was “Not Active”, the IC50 [4] was “Not Active” and the IC50 ([5]; insect cells) was “Not Active”.

In the case of `N[C@@H](Cc1ccc(O)c(O)c1)C(=O)O` [LEVODOPA], the IC50 [1] is reported as “Not Active”, the IC50 (Melanocortin receptor 3) is reported as “Not Active” and the IC50 (Endothelin-1 receptor; cho-k1) is reported as “Not Active”. The IC50 [2] was “Not Active”, the Ki [2] was “Not Active” and the IC50 [3] was “Not Active”. The Ki [3] was “Not Active”, the IC50 [4] was “Not Active” and the IC50 ([5]; read-out: IC50) was 2.15 µM.

With `N[C@@H](Cc1cc(I)c(Oc2ccc(O)c(I)c2)c(I)c1)C(=O)O` [LIOTHYRONINE] the IC50 [1] was “Not Active”, the IC50 (Melanocortin receptor 3) was “Not Active” and the IC50 (Endothelin-1 receptor; cho-k1) was “Not Active”. The IC50 [4] was “Not Active” and the IC50 ([5]; insect cells) was “Not Active”.

For `O=NN(CCCl)C(=O)NC1CCCCC1` [LOMUSTINE], the IC50 [1] was “Not Active”, the IC50 (Melanocortin receptor 3) was “Not Active” and the IC50 (Endothelin-1 receptor; cho-k1) was “Not Active”. The IC50 [2] was “Not Active”, the Ki [2] was “Not Active” and the IC50 [3] was “Not Active”. The Ki [3] was “Not Active”, the IC50 [4] was “Not Active” and the IC50 ([5]; insect cells) was “Not Active”.

With `CCOC(=O)N1CCC(=C2c3ccc(Cl)cc3CCc3cccnc32)CC1` [LORATADINE] the IC50 [1] was “Not Active”, the IC50 (Melanocortin receptor 3) was “Not Active” and the IC50 (Endothelin-1 receptor; cho-k1) was “Not Active”. The IC50 [2] was “Not Active”, the Ki [2] was “Not Active” and the IC50 [3] was “Not Active”. The Ki [3] was “Not Active”, the IC50 [4] was “Not Active” and the IC50 ([5]; insect cells) was “Not Active”.

For `Cn1ccnc1S` [METHIMAZOLE], the IC50 [1] was “Not Active”, the IC50 (Melanocortin receptor 3) was “Not Active” and the IC50 (Endothelin-1 receptor; cho-k1) was “Not Active”. For the same compound, the IC50 [2] was “Not Active”, the Ki [2] was “Not Active” and the IC50 [3] was “Not Active”. The Ki [3] was “Not Active”, the IC50 [4] was “Not Active” and the IC50 ([5]; insect cells) was “Not Active”.
